pIC50: −log10 of the molar value.
Target: T1, RORγ-LBD (Homo sapiens, UniProt P51449)
T1 construct: HIS-tagged RORγ-LBD was recombinantly expressed in SF9 cells; made in house; host or cells: SF9 cells (baculovirus); unpurified lysate
T1 sequence (P51449 269-508 limits assumed): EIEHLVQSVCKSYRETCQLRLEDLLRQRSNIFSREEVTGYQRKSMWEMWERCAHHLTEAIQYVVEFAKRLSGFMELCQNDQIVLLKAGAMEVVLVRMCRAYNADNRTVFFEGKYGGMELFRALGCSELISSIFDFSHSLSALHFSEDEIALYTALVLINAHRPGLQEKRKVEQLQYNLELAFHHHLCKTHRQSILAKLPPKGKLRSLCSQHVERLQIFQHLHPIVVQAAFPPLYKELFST
Test: RORγ-Ligand Binding Domain TR-FRET Assay
Format: biochemical
Method: HIS-tagged RORγ-LBD was recombinantly expressed in SF9 cells using a baculovirus expression system. The protein was not purified. Cells were lysed and the lysate was used as a source for RORγ-LBD for the assay. A 1:80 dilution of RORγ-LBD lysate in assay buffer (25 mM HEPES pH 7.0, 100 mM NaCl, 0.01% Tween, 0.1% BSA) was prepared and 5 μL was added to each well (RORγ-LBD final concentration ˜10 nM). Control wells received lysate from SF9 cells not expressing RORγ-LBD.
Compounds to be tested were diluted to 100× final test concentration in DMSO and further diluted to 4× final test concentration using assay buffer to provide the test compound mixture. An aliquot (5 μL) of the test compound mixture was added to each well.
A 4× stock of biotinylated-LXXLL peptide from SRC1-2 (Biotin-[…]) was prepared in assay buffer and a 5 μL aliquot added to each well (450 nM final concentration). A 4× solution of europium tagged anti-HIS antibody (2 nM final concentration) and APC conjugated streptavidin (60 nM final concentration) were prepared and a 5 μL aliquot added to each well.
The final assay mixture was incubated for 4 hours to overnight, and the fluorescence signal was measured on an Envision plate reader: (Excitation filter=340 nm; APC emission=665 nm; Europium emission=615 nm; dichroic mirror=D400/D630; delay time=100 μs, integration time=200 μs).
IC50 values for test compounds were calculated from the quotient of the fluorescence signal at 665 nm divided by the fluorescence signal at 615 nm using GraphPad Prism software.

Row | SMILES | pIC50 (Table 8, indazoles) | pIC50 (benzoxazines, Table 9)
1 | O=C(Nc1ccc2cnn(S(=O)(=O)c3cccc(C(F)(F)F)c3)c2c1)c1c(Cl)cccc1C(F)(F)F [Compound V-42] | > 4.82 | 
2 | CNC(=O)c1cccc(S(=O)(=O)n2ncc3ccc(NC(=O)c4c(F)cccc4Cl)cc32)c1 [Compound V-107] | > 4.82 | 
3 | O=C(Nc1ccc2cnn(S(=O)(=O)Cc3cccc(C(F)(F)F)c3)c2c1)c1c(F)cccc1Cl [Compound V-137] | > 4.82 | 
4 | Cc1ccc(S(=O)(=O)n2ncc3ccc(NC(=O)c4c(F)cccc4Cl)cc32)cc1 [Compound V-158] | > 4.82 | 
5 | O=C(Nc1ccc2cnn(S(=O)(=O)c3ccc(F)cc3)c2c1)c1c(F)cccc1Cl [Compound V-171] | > 4.82 | 
6 | CC(=O)c1cccc(S(=O)(=O)n2ncc3ccc(NC(=O)c4c(F)cccc4C(F)(F)F)cc32)c1 [Compound V-12] | > 4.82 | 
7 | CC(C)(C)c1cccc(S(=O)(=O)n2ncc3ccc(NC(=O)c4c(Cl)cccc4C(F)(F)F)cc32)c1 [Compound V-34] | > 4.82 | 
8 | COCC1CN(S(=O)(=O)c2ccc(F)c(F)c2)c2cc(NC(=O)Cc3ccc(Cl)cc3)ccc2O1 (centres unmarked) [VI-69] |  | < 4.82
9 | Cc1cccc(S(=O)(=O)n2ncc3ccc(NC(=O)Cc4ccc(F)cc4)cc32)c1 [Compound V-25] | > 4.82 | 
10 | O=C(Nc1ccc2c(c1)N(S(=O)(=O)c1ccc(Cl)cc1)C[C@@H](CO)O2)c1c(F)cccc1Cl [VI-54] |  | > 4.82
11 | O=C(Nc1ccc2cnn(S(=O)(=O)c3ccc(Br)cc3)c2c1)c1c(F)cccc1Cl [Compound V-98] | > 4.82 | 
12 | COc1cccc(S(=O)(=O)n2ncc3ccc(NC(=O)c4c(Cl)cccc4C(F)(F)F)cc32)c1 [Compound V-40] | > 4.82 | 
13 | C[C@H](O)[C@H]1CN(S(=O)(=O)c2ccc(F)cc2)c2cc(NC(=O)c3c(F)cccc3Cl)ccc2O1 [VI-23] |  | > 4.82
14 | Cc1nn(C(F)F)cc1S(=O)(=O)n1ncc2ccc(NC(=O)c3c(Cl)cccc3Cl)cc21 [Compound V-65] | > 4.82 | 
15 | O=C(Nc1ccc2cnn(S(=O)(=O)c3ccc(Cl)c(Cl)c3)c2c1)c1c(F)cccc1Cl [Compound V-154] | > 4.82 | 
16 | COc1ccccc1S(=O)(=O)n1ncc2ccc(NC(=O)c3c(F)cccc3Cl)cc21 [Compound V-111] | > 4.82 | 
17 | O=C(Nc1ccc2cnn(S(=O)(=O)c3cccc(C(F)(F)F)c3)c2c1)c1c(F)cccc1Cl [Compound V-55] | > 4.82 | 
18 | CC(=O)c1cccc(S(=O)(=O)n2ncc3ccc(NC(=O)c4c(Cl)cccc4Cl)cc32)c1 [Compound V-69] | > 4.82 | 
19 | COC(=O)c1cccc(S(=O)(=O)n2ncc3ccc(NC(=O)c4c(F)cccc4Cl)cc32)c1 [Compound V-108] | > 4.82 | 
20 | Cc1ccc(S(=O)(=O)n2ncc3ccc(NC(=O)c4c(F)cccc4Cl)cc32)c(F)c1 [Compound V-118] | > 4.82 | 

Row | SMILES | pIC50 (Table 8, indazoles) | pIC50 (benzoxazines, Table 9)
21 | O=C(Nc1ccc2cnn(S(=O)(=O)c3cccc(Cl)c3F)c2c1)c1c(F)cccc1Cl [Compound V-167] | > 4.82 | 
22 | C[C@@H](O)[C@H]1CN(S(=O)(=O)c2ccc(F)cc2)c2cc(NC(=O)c3c(F)cccc3Cl)ccc2O1 [VI-17] |  | > 4.82
23 | COc1cccc(S(=O)(=O)n2ncc3ccc(NC(=O)Cc4ccc(Cl)cc4)cc32)c1 [Compound V-32] | > 4.82 | 
24 | C[C@H](O)[C@H]1CN(S(=O)(=O)c2ccc(F)cc2)c2cc(NC(=O)c3c(Cl)cccc3C(F)(F)F)ccc2O1 [VI-16] |  | > 4.82
25 | O=C(Nc1ccc2cnn(S(=O)(=O)c3ccc(F)c(Cl)c3)c2c1)c1c(F)cccc1Cl [Compound V-76] | > 4.82 | 
26 | COc1cccc(S(=O)(=O)n2ncc3ccc(NC(=O)Cc4cc(F)cc(F)c4)cc32)c1 [Compound V-16] | > 4.82 | 
27 | CNC(=O)Nc1ccc(S(=O)(=O)n2ncc3ccc(NC(=O)c4c(F)cccc4Cl)cc32)cc1Cl [Compound V-133] | > 4.82 | 
28 | Cc1ncc(CC(=O)Nc2ccc3cnn(S(=O)(=O)c4cccc(OC(F)F)c4)c3c2)s1 [Compound V-3] | > 4.82 | 
29 | Cc1cccc(S(=O)(=O)n2ncc3ccc(NC(=O)c4c(Cl)cccc4Cl)cc32)c1 [Compound V-70] | > 4.82 | 
30 | CCn1cc(S(=O)(=O)n2ncc3ccc(NC(=O)c4c(F)cccc4Cl)cc32)cn1 [Compound V-113] | > 4.82 | 
31 | CC(=O)c1cccc(S(=O)(=O)n2ncc3ccc(NC(=O)Cc4cc(F)cc(F)c4)cc32)c1 [Compound V-15] | > 4.82 | 
32 | O=C(Nc1ccc2cnn(S(=O)(=O)Cc3ccc(Cl)cc3)c2c1)c1c(F)cccc1Cl [Compound V-92] | > 4.82 | 
33 | O=C(Nc1ccc2cnn(S(=O)(=O)Cc3ccc(C(F)(F)F)cc3)c2c1)c1c(F)cccc1Cl [Compound V-140] | > 4.82 | 
34 | O=C(Nc1ccc2cnn(S(=O)(=O)c3cc(Cl)c(Cl)s3)c2c1)c1c(F)cccc1Cl [Compound V-97] | > 4.82 | 
35 | COC(=O)c1ccccc1S(=O)(=O)n1ncc2ccc(NC(=O)c3c(F)cccc3Cl)cc21 [Compound V-142] | > 4.82 | 
36 | Cc1ccccc1S(=O)(=O)n1ncc2ccc(NC(=O)c3c(F)cccc3Cl)cc21 [Compound V-129] | > 4.82 | 
37 | Cc1nn(C(F)F)cc1S(=O)(=O)n1ncc2ccc(NC(=O)c3c(F)cccc3C(F)(F)F)cc21 [Compound V-43] | > 4.82 | 
38 | C[C@H](C(=O)Nc1ccc2c(c1)N(S(=O)(=O)c1ccc(F)cc1)C[C@H](C)O2)c1ccccc1 [VI-133] |  | > 4.82
39 | O=C(Nc1ccc2c(c1)N(S(=O)(=O)c1ccc(F)cc1)C(CO)CO2)c1c(F)cccc1Cl (centres unmarked) [Compound 23, 2-Chloro-6-fluoro-N-[4-(4-fluorobenzenesulfonyl)-3-hydroxymethyl-3,4-dihydro-2H-benzo[1,5]oxazin-6-yl]benzamide] |  | > 4.82
40 | CC(=O)c1cccc(S(=O)(=O)n2ncc3ccc(NC(=O)c4c(Cl)cccc4C(F)(F)F)cc32)c1 [Compound V-36] | > 4.82 | 

Row | SMILES | pIC50 (Table 8, indazoles) | pIC50 (benzoxazines, Table 9)
41 | CC(=O)c1cccc(S(=O)(=O)n2ncc3ccc(NC(=O)c4c(F)cccc4Cl)cc32)c1 [Compound V-122] | > 4.82 | 
42 | O=C(Nc1ccc2cnn(S(=O)(=O)c3cccc(Cl)c3)c2c1)c1c(F)cccc1C(F)(F)F [Compound V-48] | > 4.82 | 
43 | C[C@H]1CN(S(=O)(=O)c2ccc(F)cc2)c2cc(NC(=O)[C@H](C)c3ccccc3)ccc2O1 [VI-134] |  | > 4.82
44 | O=C(Nc1ccc2cnn(S(=O)(=O)c3ccsc3)c2c1)c1c(F)cccc1Cl [Compound V-99] | > 4.82 | 
45 | O=C(Nc1ccc2cnn(S(=O)(=O)Cc3ccc(F)cc3)c2c1)c1c(F)cccc1Cl [Compound V-160] | > 4.82 | 
46 | N#Cc1cccc(S(=O)(=O)N2C[C@H](CO)Oc3ccc(NC(=O)c4c(F)cccc4F)cc32)c1 [VI-65] |  | > 4.82
47 | O=C(Nc1ccc2cnn(S(=O)(=O)Cc3ccc(C(F)(F)F)cc3)c2c1)c1c(Cl)cccc1C(F)(F)F [Compound V-38] | > 4.82 | 
48 | CN(C)C(=O)Nc1ccc(S(=O)(=O)n2ncc3ccc(NC(=O)c4c(F)cccc4Cl)cc32)cc1 [Compound V-134] | > 4.82 | 
49 | CC(=O)Nc1ccc(S(=O)(=O)n2ncc3ccc(NC(=O)c4c(F)cccc4Cl)cc32)cc1Cl [Compound V-149] | > 4.82 | 
50 | COC(=O)c1sccc1S(=O)(=O)n1ncc2ccc(NC(=O)c3c(F)cccc3Cl)cc21 [Compound V-144] | > 4.82 | 
51 | CC(=O)c1cccc(S(=O)(=O)n2ncc3ccc(NC(=O)Cc4ccc(F)cc4)cc32)c1 [Compound V-24] | > 4.82 | 
52 | N#CC[C@H]1CN(S(=O)(=O)c2ccc(F)cc2)c2cc(NC(=O)c3c(F)cccc3Cl)ccc2O1 [Compound 19, (S)-2-Chloro-N-(2-(cyanomethyl)-4-((4-fluorophenyl)sulfonyl)-3,4-dihydro-2H-benzo[b][1,4]oxazin-6-yl)-6-fluorobenzamide] |  | > 4.82
53 | C[C@H]1CN(S(=O)(=O)c2ccc(F)cc2)c2cc(NC(=O)C(C)(C)c3ccc(Cl)cc3)ccc2O1 [VI-135] |  | > 4.82
54 | Cc1cccc(Cl)c1C(=O)Nc1ccc2cnn(S(=O)(=O)c3cccc(C(F)(F)F)c3)c2c1 [Compound V-8] | > 4.82 | 
55 | O=C(Nc1ccc2c(c1)N(S(=O)(=O)c1ccc(F)cc1)C[C@H](CO)O2)c1c(F)cccc1Cl [Compound 18, (R)-2-Chloro-6-fluoro-N-(4-((4-fluorophenyl)sulfonyl)-2-(hydroxymethyl)-3,4-dihydro-2H-benzo[b][1,4]oxazin-6-yl)benzamide] |  | < 4.82
56 | N#Cc1cccc(S(=O)(=O)n2ncc3ccc(NC(=O)c4c(F)cccc4Cl)cc32)c1 [Compound V-121] | > 4.82 | 
57 | Cc1nn(C(F)F)cc1S(=O)(=O)n1ncc2ccc(NC(=O)Cc3ccc(Cl)cc3)cc21 [Compound V-27] | > 4.82 | 
58 | Cn1cnc(S(=O)(=O)n2ncc3ccc(NC(=O)c4c(F)cccc4Cl)cc32)c1 [Compound V-147] | > 4.82 | 
59 | O=C(Nc1ccc2cnn(S(=O)(=O)c3ccc(F)c(C(F)(F)F)c3)c2c1)c1c(F)cccc1F [Compound V-56] | > 4.82 | 
